From patent US7407753B2, “Methods, kits and pharmaceutical compositions for diagnosing, delaying onset of, preventing and/or treating osteoporosis” (priority 2004, dated 2008)

Assays:
[1] = tested on: diaphyseal bone marrow derived stromal cells; assay: cell count of bone marrow derived stromal cells (preosteoblasts) challenged with ligand; type: cell-based, mouse; settings: cells grown for 10 days in osteogenic medium; 48 hours incubation with ligand; FIG. 1f
Description: (§1) Cell cultures and mRNA analysis—Osteoclastogenic cultures of monocytes derived from femora and tibiae of WT C57BL/6J mice were set as previously reported (Zou, W., et al., 2002. FASEB J. 16: 274-282). After separation and prior to RNA extraction or cell counts the cells were cultured for 5 days in medium containing M-CSF and RANKL (R&D Systems Inc. Minneapolis, Minn.). Primary bone marrow stromal cell cultures from femoral diaphyseal bone marrow and the MC3T3 E1 cells were cultured as reported previously (Frenkel, B., et al., 1997. Endocrinology 138: 2109-2116; Bab, I., et al., 1992. EMBO J. 11: 1867-1873). The cells were grown in osteogenic medium containing ascorbic acid, β-glycerophophate and dexamethasone (Frenkel, B., et al., 1997. Endocrinology 138: 2109-2116).
(§2) In the cell count experiments, ligands were dissolved in dimethylsulfoxide and further diluted to their final concentration using tissue culture medium. For osteoclast counts the cultures were fixed in ethanol and TRAP-stained. […] The cells were then serum starved for 2 hours followed by 48 hours incubation in (α-MEM supplemented with 4% BSA and ligand. Cells were separated using chondroitinase and trypsin (Krebsbach, P. H., et al., 1998. Transplantation 66, 1272-1278) and counted with a hemocytometer in triplicate wells per condition.

[2] = tested on: tissue non-specific alkaline phosphatase (TNSALP); assay: TNSALP activity in the preosteoblastic stromal cell cultures; type: cell-based, mouse; settings: preosteoblastic stromal cell culture, early differentiation stage; data not shown
Description: as §1, §2

OVX mice = assay: ovariectomy (OVX)-induced femoral bone loss in sexually mature mice; type: in vivo, mouse; settings: C3H OVX mice, 10 mg/Kg/day subcutaneously for 4 weeks from time of operation; FIGS. 4a-g
Description: Ovariectomy (OVX) mice—C3H mice (Harlan, Israel) were subjected to an ovariectomy procedure. HU-308 was synthesized as described before [Hanus, L., et al. HU-308: a specific agonist for CB(2), a peripheral cannabinoid receptor. Proc. Natl. Acad. Sci. U.S.A. 96: 14228-142-33 (1999)] and was daily injected once subcutaneously as an ethanol/emulphor/saline (1:1:18) solution.
All reported animals received calcein flurochrome (Sigma), 15 mg/Kg intraperitoneally four days and one day prior to sacrifice. […]
Micro-computed tomography (μCT)—Whole femora were examined by μCT 40 (Scanco Medical, Bassersdorf, Switzerland). […] Trabecular bone parameters were measured in a metaphyseal segment, extending proximally from the proximal tip of the primary spongiosa to the proximal border of the distal femoral quartile. Cortical bone parameters were determined in a diaphyseal segment extending 1.12 mm distally from the midpoint between the femoral ends.
Histomorphometry and immunohistochemistry—After μCT image acquisition, the specimens were embedded undecalcified in Technovit 9100 (Heracus Kulzer, Wehrheim, Germany). […] Parameters were determined according to a standardized nomenclature [Parfitt, A. M., et al. Bone histomorphometry: standardization of nomenclature, symbols, and units. […]

[3] = tested on: bone marrow derived osteoclastic cell system; assay: count of TRAP-positive multinucleated osteoclasts in primary osteoclastogenic monocyte culture; type: cell-based, mouse; settings: osteoclastogenic monocyte culture with M-CSF and RANKL; FIG. 1g
Description: as §1, §2

Row | SMILES | number of diaphyseal bone marrow derived stromal cells [1] | activity of the tissue non-specific alkaline phosphatase (TNSALP) [2] | ovariectomy (OVX)-induced femoral bone loss (OVX mice) | number of TRAP positive multinucleated cells [3]
1 | CCCCCCC(C)(C)c1cc(OC)c([C@@H]2C=C(CO)[C@@H]3C[C@H]2C3(C)C)c(OC)c1 [HU-308] | potent increase | unaffected | attenuating | marked dose dependent decrease
2 | CCCCC/C=C\C/C=C\C/C=C\C/C=C\CCCCOC(CO)CO [Noladin ether, 2-arachidonyl glyceryl ether] | no significant effect |  |  | 
